# Reference: patent US11213559B2, “Formulation for treatment of irritable bowel disease” (ABOCA S.P.A. SOCIETA′ AGRICOLA, priority 2012, dated 2022)
# Tests used:
# duodenum = assay: protective effect on intestinal mucosa in Ussing chamber, duodenum; format: in vivo, rat; conditions: isolated (stress) rats, composition 500 mg/kg, dexamethasone 1 mg/kg intragastrically, average ±SD
# Procedure: (§1) The experiment was conducted in order to verify the effects of the tested substances on the artificially damaged intestinal mucosa ex vivo (for example hydrochloric acid).
# (§2) […] male Sprague Dawley rats weighing approximately 200-250 g were used for the test.
# (§3) 4 groups of 8 rats A, B, C, D were formed, respectively containing untreated rats, rats treated with 1.0 ml saline solution intragastrically, rats treated with 1.0 ml (500 mg/kg of body weight) of composition of the invention intragastrically, and rats treated with 1.0 ml of dexamethasone (1 mg/kg of body weight) intragastrically.
# (§4) The animals in groups A, B, C and D were deprived of food for 18 hours.
# Four rats per group were anaesthetised 30 minutes after the above-indicated administration by means of intraperitoneal injection and were kept in a heated atmosphere.
# A sample of the duodenum was then dissected from these rats and mounted between the two half-chambers of the Ussing chamber and damage was induced using hydrochloride (pH 8.0; pH 5.5). […]
# (§5) The ddp in mV through the mucosal membrane was measured directly as well as the short-circuit current, and these were monitored for 15 minutes whilst the transmembrane resistance was calculated in ohm x cm^2 using Ohm's law. […]
# (§6) The system was then stabilised for 10 minutes and the same parameters as indicated above were then measured for 15 minutes. […]
# ileum = assay: protective effect on intestinal mucosa in Ussing chamber, ileum; format: in vivo, rat; conditions: isolated (stress) rats, composition 500 mg/kg, dexamethasone 1 mg/kg intragastrically, average ±SD
# Procedure: as §1, §2, §3, §4
# Four rats per group were then anaesthetised 50 minutes after the above-indicated administration by means of intraperitoneal injection and were kept in a heated atmosphere.
# A sample of the ileum was then dissected from these rats and mounted between the two half-chambers of the Ussing chamber and damage was induced using hydrochloride (pH 8.0; pH 6.5). […]
# as §5, §6
# [1] = tested on: colitis induced by acetic acid; assay: model of colitis induced by acetic acid in rats; format: in vivo, rat; conditions: average ± SEM
# Procedure: To test in vivo the efficacy of the composition of the invention, said composition was formulated in capsules and was assessed in terms of its ability to protect the susceptibility of the intestinal mucosa to irritating stimuli. Based on the presumed mechanism of the product to act on the inflammatory component of IBS (supported only recently by the literature) by means of a local, indirect protective and anti-inflammatory action also stemming from mucoadhesion, an experimental model of inflammatory colitis, not specific for IBS, was selected.
# The study was carried out on a model of colitis induced by acetic acid, as described by McPherson B R, Pfeiffer C J (1978) Experimental Production of Diffuse Colitis in Rats. Digestion;17:135-150; Mousavizadeh K, Rahimian R, Fakhfouri G, Aslani F S, Ghafourifar P. (2009) Anti-inflammatory effects of 5-HT receptor antagonist, tropisetron on experimental colitis in rats. Eur J Clin Invest.;39(5):375-83; Noronha-Blob L, Lowe V C, Muhlahauser R O, Burch R M. (1993) NPC 15669, an inhibitor of neutrophil recruitment, is efficacious in acetic acid-induced colitis in rats. Gastroenterology, 104:1021-9.
# Each group was formed by 10 rats in accordance with the following schema • 1. Rats without colitis, treated with vehicle 10 ml/kg, (p.o.); • 2. Rats with colitis, treated with vehicle 10 ml/kg, (p.o.); • 3. Rats with colitis, treated with the composition of the invention, (p.o.); • 4. Rats with colitis, treated with dexamethasone, (p.o) as reference. Macroscopic and microscopic parameters were measured.
# In particular, the macroscopic damage to the colon, the colon index (mg of colon/grams of rat) and the activity of myeloperoxidase, an enzyme contained in the intracellular azurophilic granules of the polymorphonuclear leukocytes (PMNs), which can therefore be used as an indicator of the accumulation of the migrated neutrophils in the tissues during an inflammatory process, are shown.
# To verify the effectiveness of the use of the incense ingredient in the formulations, the same experiment of inflammatory colitis induced by acetic acid was carried out with a formulation devoid of incense (ABO-INT-10-2), which corresponds to the formulation Abo-INT 10 (general formulations on page 16), devoid of incense.
# CaCo-2 = assay: antioxidant activity test (DCFH-DA, oxidative stress by oxygenated water); format: cell-based, human; conditions: 0.15 mg/ml
# Procedure: In order to verify the antioxidant power of the composition of the invention in a biological system similar to the intestinal epithelium (CaCo-2), the following tests were carried out: Evaluation of the antioxidant activity of the sample on human cells subject to chemical, progressive oxidative stress. The assessment of the antioxidant action is acquired from the quantification of the formation of free radicals in cells exposed to the sample and to oxidative stress. The antioxidant activity of the sample in analyses was evaluated by comparison with that of a safe hydrosoluble antioxidant, such as vitamin C. The protocol is based on the use of a fluorescent probe called 2′,7′-dichlorofluorescein diacetate (DCFH-DA), a non-fluorescent stable molecule that enters the cells, bonds to the membrane macromolecules, where it is hydrolysed from cytoplasmic esterases to give dichlorofluorescein (DCFH), a molecule that again is non-fluorescent. DCFH, in the presence of free radicals, is oxidised, forming a highly fluorescent molecule: DCF. The oxidative stress is induced via oxygenated water. The radicals produced constitutively from the cells with the addition of the sample, but without the addition of the oxidising agent, were also monitored as a negative control (absence of oxidant activity of the composition of the invention).
# [2] = Table 1, rats with 4% acetic acid colitis, ABO/INT-10 1 g/kg, dexamethasone 1 mg/kg p.o.
# [3] = Table 3, experiment with formulation devoid of incense, ABO/INT-10-2 1 g/kg, dexamethasone 1 mg/kg
# [4] = Table 4, experiment with formulation devoid of incense, ABO/INT-10-2 1 g/kg, dexamethasone 1 mg/kg
SMILES,average value of resistance of the duodenum after induction of damage (duodenum; Krebs buffer at pH 5.5),"average value of resistance of the duodenum (duodenum; physiological pH Krebs buffer, 30 minutes)",average value of resistance of the ileum after induction of damage (ileum; Krebs buffer at pH 6.5),"average value of resistance of the ileum (ileum; physiological pH Krebs buffer, 50 minutes)","Faecal excretion number [1, 2]","Faecal excretion weight [1, 2]","Body weight (g) Final ([1]; Table 1, rats with 4% acetic acid colitis, final, ABO/INT-10 1 g/kg, dexamethasone 1 mg/kg p.o.)","Macroscopic damage ([1]; Table 2, colon, rats with 4% acetic acid colitis, composition 1 g/kg, dexamethasone 1 mg/kg p.o.)","Colon index ([1]; Table 2, mg of colon/grams of rat, composition 1 g/kg, dexamethasone 1 mg/kg p.o.)","MPO (U/mg tissue) ([1]; Table 2, myeloperoxidase activity, after 24 hours, composition 1 g/kg, dexamethasone 1 mg/kg p.o.)","Defecations number [1, 3]","Defecations weight [1, 3]","Weight variation (g) [1, 3]","Colon index (mg/g) [1, 4]","MPO (U/mg tissue) [1, 4]","Macroscopic damage [1, 4]",% reduction of free radicals (CaCo-2; 30 min),% reduction of free radicals (CaCo-2; 60 min),% reduction of free radicals (CaCo-2; 90 min),% reduction of free radicals (CaCo-2; 120 min)
"C[C@@H]1C[C@H]2[C@@H]3CCC4=CC(=O)C=C[C@]4(C)[C@@]3(F)[C@@H](O)C[C@]2(C)[C@@]1(O)C(=O)CO [Dexamethasone, dexamethasone]",48.0±12.7 ohm×cm^2,50.4±13.9 ohm×cm^2,39.7±8.1 ohm×cm^2,50.6±13.4 ohm×cm^2,40.40 ± 8.035,9.440 ± 1.790 g,214.3 ± 4.177 g,4.417 ± 1.052,6.041 ± 0.341 mg/g,15.387 ± 6.136 U/mg tissue,42.10 ± 9.011,9.44 ± 1.79 g,2.167 ± 1.493°°** g,6.041 ± 0.341°** mg/g,16.423 ± 5.9780°* U/mg tissue,4.417 ± 1.052°°**,–,–,–,–
O=C1O[C@H]([C@@H](O)CO)C(O)=C1O [vitamin C],–,–,–,–,–,–,–,–,–,–,–,–,–,–,–,–,38%,44.8%,48%,47%
